Measurements as given in article PMC8037814, “Polymorphic Characterization, Pharmacokinetics, and Anti-Inflammatory Activity of Ginsenoside Compound K Polymorphs” (Molecules, 2021).
“And” between values parts separate entries of the source, which are not always exact repeats. Identical values can stand only once. Like-named read-outs stand apart in the source and are kept apart here.

Assay: Pharmacokinetics after intravenous administration of CK in rats (10 mg/kg)
Format: in vivo, Sprague-Dawley rats
Details: i.v. 10 mg/kg; for half-life: read-out: t1/2z (converted)
Experimental: All samples were analyzed with a triple quadrupole LC-MS/MS (API 4000 LC-MS/MS, AB Sciex, Framingham, MA, USA) coupled with an Agilent 1200 HPLC system (Agilent Technologies, Palo Alto, CA, USA). The MS was equipped with an electrospray system (ESI). The N2 gas temperature and ion-spray voltage were set to 550 °C and 4.5 kV, respectively. CK was measured in multiple reaction monitoring (MRM) mode using a negative electrospray ionization source at m/z 667.4 → 621.2 for CK (CID 25.6 v) and m/z 271.2 → 228.8 for internal standard (IS, (E)-5-(4-fluorostyryl)-2-isopropylbenzene-1,3-diol, Welichem Biotech Inc., Wayburne Drive Burnaby, BC, Canada) (CID 28.3 v) with a dwell time of 0.1 s.
Rats were divided randomly into 5 groups of six animals each (sex in half) and given 7 days to acclimatize to the facility before the experiments began. The four forms of CK were suspended in 0.5% sodium carboxymethyl cellulose (CMC-Na) solution and orally administered to rats at a dose of 20 mg/kg. A CK solution in a mixed solvent of dimethyl sulfoxide (DMSO)/castor oil/physiologic saline (3:5:92, v/v) was intravenously administered to the remaining group via the tail vein at a dose of 10 mg/kg. Blood samples were collected by retro-orbital puncture at the following times: 0.167, 0.333, 0.667, 1, 2, 3, 4, 6, 9, 12, and 24 h for the oral administration, and at 0.0083, 0.05, 0.133, 0.25, 0.5, 1, 2, 4, 6, and 9 h for the intravenous administration. Plasma samples were obtained by centrifuging a heparinized blood tube at 4000 rpm for 5 min and then stored at −70 °C until analysis.
The procedure for drug extraction from plasma samples was as follows: 0.2 mL acetonitrile, 0.2 mL plasma sample, and 10 μL IS (1 µg/mL) were added into a 1.5 mL Eppendorf-type tube. This mixture was vortexed for 1 min and then treated with 0.8 mL of methyl tert-butyl ether (MTBE) to precipitate the plasma proteins. After a mechanical vortex for 1 min and subsequent centrifugation (4000 rpm, 5 min), 0.8 mL of the supernatant was transferred and blow-dried with N2 at 40 °C in a water bath. Finally, the residue was dissolved in 120 μL of mobile phase, and then 10 μL was subjected to HPLC for analysis. […] Intra- and inter-day precision and accuracy never exceeded 15% by analyzing six replicate samples.
The CK pharmacokinetic parameters in rats, including the area under the curve (AUC(0–t) and AUC(0–∞)), mean residence time (MRT(0–t) and MRT(0–∞)), maximum concentration (Cmax), time to maximum concentration (Tmax), half-life (t1/2), apparent distribution volume (V), and total plasma clearance (CL), were derived from plasma concentration-time curves by using non-compartmental analysis (NCA) with DAS 2.0 software (Drug And Statistics, Mathematical Pharmacology Professional Committee of China, Shanghai, China). The absolute bioavailability (Fabs) was calculated from the dose-adjusted ratio of AUCp.o. to AUCi.v.. One-way analysis of variance (ANOVA) by SPSS 11.5 (SPSS Inc., Chicago, IL, USA) was conducted to compare the primary PK parameters.

[1] = female rats, individual rats 1-3, 10 mg/kg
[2] = female, Sprague-Dawley, rat, plasma, iv, 10 mg/kg, female rats, Mean±SD

## CC(C)=CCCC(C)(OC1OC(CO)C(O)C(O)C1O)C1CCC2(C)C1C(O)CC1C3(C)CCC(O)C(C)(C)C3CCC12C [CK, 20-O-β-D-glucopyranosyl-20(S)-protopanaxadiol]
Female rats, 0.5 min, individual rats 1-3, 10 mg/kg
  Plasma concentrations of CK: 54838.90 ng/mL and 127905.96 ng/mL and 48362.17 ng/mL
Female rats, 0.05 h, individual rats 1-3, 10 mg/kg
  Plasma concentrations of CK: 15185.26 ng/mL and 25786.82 ng/mL and 6748.70 ng/mL
Female rats, 8 min, individual rats 1-3, 10 mg/kg
  Plasma concentrations of CK: 1631.02 ng/mL and 4937.02 ng/mL and 980.77 ng/mL
Female rats, 0.25 h, individual rats 1-3, 10 mg/kg
  Plasma concentrations of CK: 672.83 ng/mL and 1554.81 ng/mL and 553.32 ng/mL
Female rats, 0.5 h, individual rats 1-3, 10 mg/kg
  Plasma concentrations of CK: 411.75 ng/mL and 359.74 ng/mL
Female rats, 1 h, individual rats 1-3, 10 mg/kg
  Plasma concentrations of CK: 117.01 ng/mL and 136.73 ng/mL and 243.80 ng/mL
Female rats, 2 h, individual rats 1-3, 10 mg/kg
  Plasma concentrations of CK: 136.06 ng/mL and 82.52 ng/mL
Female rats, 4 h, individual rats 1-3, 10 mg/kg
  Plasma concentrations of CK: 63.54 ng/mL and 48.16 ng/mL and 99.22 ng/mL
Female rats, 6 h, individual rats 1-3, 10 mg/kg
  Plasma concentrations of CK: 27.72 ng/mL and 22.95 ng/mL and 47.61 ng/mL
Female rats, 9 h, individual rats 1-3, 10 mg/kg
  Plasma concentrations of CK: 27.31 ng/mL and 14.83 ng/mL and 34.93 ng/mL
Female rats, Mean±SD
  CLz/F: 92.7 ± 34.3 mL/min/kg
  Vz/F: 17.75 ± 7.49 L/kg
[1]
  AUC(0-t): 3164.67 ng·h/mL and 6150.84 ng·h/mL and 2722.08 ng·h/mL
  AUC(0-∞): 3206.10 ng·h/mL and 6173.20 ng·h/mL and 2779.29 ng·h/mL
  CLz/F: 104 mL/min/kg and 54 mL/min/kg and 120 mL/min/kg
  MRT(0-t): 34.2 min and 15.6 min and 60 min
  MRT(0-∞): 56.4 min and 20.4 min and 86.4 min
  Vz/F: 21.99 L/kg and 9.10 L/kg and 22.17 L/kg
  t1/2z: 117 min and 128 min
female, Sprague-Dawley, rat, plasma, iv, 10 mg/kg, female rats, 0.5 min, Mean±SD, read-out: Plasma concentrations of CK
  concentration at 0.5 min: 77000 ± 44200 ng/mL
female, Sprague-Dawley, rat, plasma, iv, 10 mg/kg, female rats, 0.05 h, Mean±SD, read-out: Plasma concentrations of CK
  concentration at 0.05 h: 15900 ± 9540 ng/mL
female, Sprague-Dawley, rat, plasma, iv, 10 mg/kg, female rats, 8 min, Mean±SD, read-out: Plasma concentrations of CK
  concentration at 8 min: 2520 ± 2120 ng/mL
female, Sprague-Dawley, rat, plasma, iv, 10 mg/kg, female rats, 0.25 h, Mean±SD, read-out: Plasma concentrations of CK
  concentration at 0.25 h: 927 ± 547 ng/mL
female, Sprague-Dawley, rat, plasma, iv, 10 mg/kg, female rats, 0.5 h, Mean±SD, read-out: Plasma concentrations of CK
  concentration at 0.5 h: 354 ± 60.4 ng/mL
female, Sprague-Dawley, rat, plasma, iv, 10 mg/kg, female rats, 0.5 h, individual rats 1-3, read-out: Plasma concentrations of CK
  concentration at 0.5 h: 291 ng/mL
female, Sprague-Dawley, rat, plasma, iv, 10 mg/kg, female rats, 1 h, Mean±SD, read-out: Plasma concentrations of CK
  concentration at 1 h: 166 ± 68.2 ng/mL
female, Sprague-Dawley, rat, plasma, iv, 10 mg/kg, female rats, 2 h, Mean±SD, read-out: Plasma concentrations of CK
  concentration at 2 h: 102 ± 29.8 ng/mL
female, Sprague-Dawley, rat, plasma, iv, 10 mg/kg, female rats, 2 h, individual rats 1-3, read-out: Plasma concentrations of CK
  concentration at 2 h: 86.6 ng/mL
female, Sprague-Dawley, rat, plasma, iv, 10 mg/kg, female rats, 4 h, Mean±SD, read-out: Plasma concentrations of CK
  concentration at 4 h: 70.3 ± 26.2 ng/mL
female, Sprague-Dawley, rat, plasma, iv, 10 mg/kg, female rats, 6 h, Mean±SD, read-out: Plasma concentrations of CK
  concentration at 6 h: 32.8 ± 13.1 ng/mL
female, Sprague-Dawley, rat, plasma, iv, 10 mg/kg, female rats, 9 h, Mean±SD, read-out: Plasma concentrations of CK
  concentration at 9 h: 25.7 ± 10.1 ng/mL
[2]
  AUC(0-inf): 4050 ± 1850 ng·h/mL
  half-life: 131 ± 15 min
female, Sprague-Dawley, rat, plasma, iv, 10 mg/kg, female rats, Mean±SD, read-out: AUC(0-t)
  AUC(0-t): 4010 ± 1870 ng·h/mL
female, Sprague-Dawley, rat, plasma, iv, 10 mg/kg, female rats, Mean±SD, read-out: MRT(0-t)
  MRT last: 36.6 ± 22.2 min
female, Sprague-Dawley, rat, plasma, iv, 10 mg/kg, female rats, Mean±SD, read-out: MRT(0-∞)
  MRT inf: 54.6 ± 33 min
female, Sprague-Dawley, rat, plasma, iv, 10 mg/kg, female rats, individual rats 1-3
  half-life: 146 min
Male rats, 0.5 min, individual rats 1-3, 10 mg/kg
  Plasma concentrations of CK: 67670.83 ng/mL and 69233.93 ng/mL
Male rats, 0.05 h, individual rats 1-3, 10 mg/kg
  Plasma concentrations of CK: 11403.43 ng/mL and 18155.87 ng/mL
Male rats, 8 min, individual rats 1-3, 10 mg/kg
  Plasma concentrations of CK: 1214.82 ng/mL and 3002.82 ng/mL and 2609.85 ng/mL
Male rats, 0.25 h, individual rats 1-3, 10 mg/kg
  Plasma concentrations of CK: 664.52 ng/mL and 1307.24 ng/mL
Male rats, 0.5 h, individual rats 1-3, 10 mg/kg
  Plasma concentrations of CK: 214.44 ng/mL and 391.89 ng/mL
